Where two headings read alike, the source gives them in different places.
Legend:
Type in all cases: cell-based
human A2B receptor = biological target: T1, human A2B receptor (Homo sapiens, UniProt P29275); test: Functional A2B receptor activity, recombinant HEK293 cells, cAMP (HTRF), agonist NECA; conditions: read-out: Functional A2B receptor activity, HEK293, cAMP, IC50
T1 construct: expressed in transfected cells; host or cells: HEK293
T1 sequence (P29275 1-332): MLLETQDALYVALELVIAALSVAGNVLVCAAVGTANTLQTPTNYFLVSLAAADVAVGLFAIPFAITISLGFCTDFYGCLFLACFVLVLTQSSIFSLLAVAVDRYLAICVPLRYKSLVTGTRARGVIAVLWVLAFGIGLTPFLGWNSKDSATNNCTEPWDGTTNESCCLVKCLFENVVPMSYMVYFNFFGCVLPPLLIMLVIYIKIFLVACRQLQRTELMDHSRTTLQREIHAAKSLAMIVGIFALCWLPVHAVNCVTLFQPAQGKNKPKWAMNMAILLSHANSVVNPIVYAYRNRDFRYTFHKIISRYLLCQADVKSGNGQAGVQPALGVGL
Description: (§1) The functional activities of human A2A, A2B, A1 and A3 receptors were determined by quantification of cAMP, being the second messenger for adenosine receptors.
(§2) Cells were seeded into 384-well plates, forskolin, test compounds and agonists (CPA for A1- and IB-MECA for A3-receptor) were added. After 30 min incubation, HTRF reagents (cAMP dynamic 2, Cis Bio) were added and the cellular cAMP levels were determined using the ENVISION (Perkin Elmer) plate reader. Obtained raw data were normalized against the inhibitor control and the neural control (DMSO) and the normalized data were fitted using GeneData software.

human A1 receptor = biological target: T2, human A1 receptor (Homo sapiens, UniProt P30542); test: Functional A1 receptor activity, recombinant CHO cells, cAMP (HTRF), forskolin, agonist CPA; conditions: recombinant CHO cells, forskolin, agonist CPA, read-out: Functional A1 receptor activity, CHO, cAMP, IC50
T2 construct: expressed in transfected cells; host or cells: CHO
T2 sequence (P30542 1-326): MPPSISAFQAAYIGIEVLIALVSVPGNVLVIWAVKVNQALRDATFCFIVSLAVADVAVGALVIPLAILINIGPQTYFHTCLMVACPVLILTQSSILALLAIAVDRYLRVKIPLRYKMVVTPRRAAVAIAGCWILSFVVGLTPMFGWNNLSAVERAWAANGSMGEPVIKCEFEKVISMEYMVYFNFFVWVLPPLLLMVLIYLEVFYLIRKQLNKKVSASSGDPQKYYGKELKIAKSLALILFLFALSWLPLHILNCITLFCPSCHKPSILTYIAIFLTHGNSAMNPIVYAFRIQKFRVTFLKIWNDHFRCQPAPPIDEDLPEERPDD
Description: as §1
(§3) For human A1 and A3 receptors, recombinant CHO cells, expressing either A1 or A3-receptor, were used. As both receptors couple to Gi proteins, the assay protocol was adapted:
as §2

human A3 receptor = biological target: T3, human A3 receptor (Homo sapiens, UniProt P0DMS8); test: Functional A3 receptor activity, recombinant CHO cells, cAMP (HTRF), forskolin, agonist IB-MECA; conditions: recombinant CHO cells, forskolin, agonist IB-MECA, read-out: Functional A3 receptor activity, CHO, cAMP, IC50
T3 construct: expressed in transfected cells; host or cells: CHO
T3 sequence (P0DMS8 1-318): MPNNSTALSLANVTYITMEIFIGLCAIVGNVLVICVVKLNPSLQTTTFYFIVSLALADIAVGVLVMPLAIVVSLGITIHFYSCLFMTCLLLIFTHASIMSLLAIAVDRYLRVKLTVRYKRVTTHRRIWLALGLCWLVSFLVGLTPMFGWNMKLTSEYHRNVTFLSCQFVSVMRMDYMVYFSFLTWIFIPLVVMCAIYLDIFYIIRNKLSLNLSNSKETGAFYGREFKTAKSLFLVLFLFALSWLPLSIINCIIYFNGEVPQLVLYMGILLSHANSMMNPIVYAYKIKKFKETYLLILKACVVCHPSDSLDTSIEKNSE
Description: as §1, §3, §2

human A2A receptor = human A2A receptor (Homo sapiens, UniProt P29274); test: Functional A2A receptor activity, recombinant HEK293 cells, cAMP (HTRF), agonist NECA; parameters: expressed in transfected cells; host or cells: HEK293; conditions: read-out: Functional A2A receptor activity, HEK293, cAMP, IC50
Sequence of human A2A receptor (P29274 whole entry): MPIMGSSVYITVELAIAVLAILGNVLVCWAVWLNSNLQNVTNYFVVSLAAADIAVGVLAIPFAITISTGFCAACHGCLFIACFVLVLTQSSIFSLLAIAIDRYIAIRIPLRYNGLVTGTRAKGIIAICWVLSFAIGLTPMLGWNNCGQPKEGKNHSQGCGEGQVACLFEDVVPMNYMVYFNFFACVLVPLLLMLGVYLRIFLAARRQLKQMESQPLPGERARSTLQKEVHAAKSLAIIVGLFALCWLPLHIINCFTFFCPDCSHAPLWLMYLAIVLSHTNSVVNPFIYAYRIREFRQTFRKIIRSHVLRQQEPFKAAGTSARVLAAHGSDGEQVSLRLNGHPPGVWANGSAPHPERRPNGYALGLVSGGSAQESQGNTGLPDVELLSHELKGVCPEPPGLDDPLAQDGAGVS
Description: as §1, §2

Row | SMILES | IC50 (human A2B receptor) [nM] | IC50 (human A1 receptor; cAMP) [nM] | IC50 (human A3 receptor; cAMP) [nM] | IC50 (human A2A receptor) [nM] | IC50 (human A1 receptor) [nM] | IC50 (human A3 receptor) [nM]
1 | COc1ccc(-c2cnn(C)c2)c2sc(NC(=O)c3ccnc(N4CCOCC4)c3)nc12 [reference compound] | < 1000 | < 1000 | < 1000 | < 10 |  | 
2 | COc1nc(F)c(C2CCOCC2)c2sc(NC(=O)N3CCC4(CCOC4)C3)nc12 (stereo not drawn) [Compound 33, N-[6-fluoro-4-methoxy-7-(oxan-4-yl)-[1,3]thiazolo[4,5-c]pyridin-2-yl]-2-oxa-7-azaspiro[4.4]nonane-7-carboxamide] | < 100 |  |  | < 10 | > 1000 | > 1000
3 | COc1ncc(-c2cnn(Cc3ccccc3)c2)c2sc(NC(=O)N3CCC4(CCOCC4)C3)nc12 [Compound 76, 8-Oxa-2-aza-spiro[4.5]decane-2-carboxylic acid [7-(1-benzyl-1H-pyrazol-4-yl)-4-methoxy-thiazolo[4,5-c]pyridin-2-yl]-amide] | < 10 |  |  | < 10 | < 100 | > 1000
4 | COc1ncc(-c2ccc(F)c(O)c2)c2sc(NC(=O)N3CCC4(CCOCC4)C3)nc12 [Compound 149, 8-Oxa-2-aza-spiro[4.5]decane-2-carboxylic acid [7-(4-fluoro-3-hydroxy-phenyl)-4-methoxy-thiazolo[4,5-c]pyridin-2-yl]-amide] | < 10 |  |  | < 10 | < 1000 | > 1000
5 | COc1ncc(-c2ccc(C)o2)c2sc(NC(=O)N3CCC4(CCOCC4)C3)nc12 [Compound 114, 8-Oxa-2-aza-spiro[4.5]decane-2-carboxylic acid [4-methoxy-7-(5-methyl-furan-2-yl)-thiazolo[4,5-c]pyridin-2-yl]-amide] | < 100 |  |  | < 10 | < 1000 | > 1000
6 | COc1ncc(C2=CCOCC2)c2sc(NC(=O)c3ccc(Cn4ccnc4)cc3)nc12 [Compound 82, N-[7-(3,6-dihydro-2H-pyran-4-yl)-4-methoxy-[1,3]thiazolo[4,5-c]pyridin-2-yl]-4-[(1H-imidazol-1-yl)methyl]benzamide] | < 10 |  |  | < 10 | < 100 | > 1000
7 | COc1ncc(C2=CCOCC2)c2sc(NC(=O)c3ccc([C@@H](C)NC(C)=O)cc3)nc12 [Compound 83, N-[7-(3,6-dihydro-2H-pyran-4-yl)-4-methoxy-[1,3]thiazolo[4,5-c]pyridin-2-yl]-4-[(1R)-1-acetamidoethyl]benzamide] | < 10 |  |  | < 10 | < 1000 | > 1000
8 | COc1ncc(C2=CCOCC2)c2sc(NC(=O)c3cnc4ccccn34)nc12 [Compound 135, Imidazo[1,2-a]pyridine-3-carboxylic acid [7-(3,6-dihydro-2H-pyran-4-yl)-4-methoxy-thiazolo[4,5-c]pyridin-2-yl]-amide] | < 10 |  |  | < 10 | < 1000 | < 1000
9 | COc1cnc(N2CCOCC2)c2sc(NC(=O)N3CCCCC3)nc12 [drawing 192, reference compound] | < 1000 | > 1000 | < 100 | < 10 |  | 
10 | COc1cnc(N2CCOCC2)c2sc(NC(=O)N3CCC(CO)CC3)nc12 [drawing 188, reference compound] | < 1000 | > 1000 | > 1000 | < 10 |  | 
11 | COc1ncc(C2=CCOCC2)c2sc(NC(=O)N3CCC(N4C(=O)C=CC4=O)CC3)nc12 [Compound 88, N-[7-(3,6-dihydro-2H-pyran-4-yl)-4-methoxy-[1,3]thiazolo[4,5-c]pyridin-2-yl]-4-(2,5-dioxo-2,5-dihydro-1H-pyrrol-1-yl)piperidine-1-carboxamide] | < 100 |  |  | < 10 | > 1000 | > 1000
12 | COc1ncc(C2CCC(F)(F)CC2)c2sc(NC(=O)N3CCC4(CCOCC4)C3)nc12 [Compound 111, 8-Oxa-2-aza-spiro[4.5]decane-2-carboxylic acid [7-(4,4-difluoro-cyclohexyl)-4-methoxy-thiazolo[4,5-c]pyridin-2-yl]-amide] | < 100 |  |  | < 10 | < 1000 | > 1000
13 | COc1ncc(C2=CCOCC2)c2sc(NC(=O)N3CC[C@@]4(CCCNC4)C3)nc12 [Compound 121, (R)-2,7-Diaza-spiro[4.5]decane-2-carboxylic acid [7-(3,6-dihydro-2H-pyran-4-yl)-4-methoxy-thiazolo[4,5-c]pyridin-2-yl]-amide] | < 100 |  |  | < 10 | > 1000 | > 1000
14 | COc1ncc(C2=CCC(OC)CC2)c2sc(NC(=O)N3CC[C@@]4(CCCOC4)C3)nc12 (stereo partly drawn) [Compound 77, (5S)-N-[4-methoxy-7-(4-methoxycyclohex-1-en-1-yl)-[1,3]thiazolo[4,5-c]pyridin-2-yl]-7-oxa-2-azaspiro[4.5]decane-2-carboxamide] | < 1000 |  |  | < 10 | > 1000 | > 1000
15 | COc1ncc(C2=CCOC2)c2sc(NC(=O)c3c[nH]cn3)nc12 [Compound 43, N-[7-(2,5-dihydrofuran-3-yl)-4-methoxy-[1,3]thiazolo[4,5-c]pyridin-2-yl]-1H-imidazole-4-carboxamide] | < 100 |  |  | < 10 | < 1000 | > 1000
16 | COc1ccc(-c2ccccc2)c2sc(NC(=O)NCCN3CCCCC3)nc12 [drawing 187, reference compound] | > 1000 | > 1000 | > 1000 | < 100 |  | 
17 | COc1ncc(C2=CCOCC2)c2sc(NC(=O)Nc3ccc(N4N=C(C)CC4=O)cc3)nc12 [Compound 94, 3-[7-(3,6-dihydro-2H-pyran-4-yl)-4-methoxy-[1,3]thiazolo[4,5-c]pyridin-2-yl]-1-[4-(3-methyl-5-oxo-4,5-dihydro-1H-pyrazol-1-yl)phenyl]urea] | < 100 |  |  | < 10 | > 1000 | > 1000
18 | COc1ncc(-c2ccccc2)c2sc(NC(=O)c3ccc(-c4nnn[nH]4)cc3)nc12 [Compound 110, N-{4-methoxy-7-phenyl-[1,3]thiazolo[4,5-c]pyridin-2-yl}-4-(1H-1,2,3,4-tetrazol-5-yl)benzamide] | < 100 |  |  | < 10 | > 1000 | > 1000
19 | COc1ccc(-c2cnn(C)c2)c2sc(NC(=O)N3CCC(C)(O)CC3)nc12 [reference compound] | < 1000 | < 1000 | < 1000 | < 10 |  | 
20 | COc1nc(F)c(N2CCOCC2)c2sc(NC(=O)N3CCC4(CCOC4)C3)nc12 (stereo not drawn) [Compound 16, N-[6-fluoro-4-methoxy-7-(morpholin-4-yl)-[1,3]thiazolo[4,5-c]pyridin-2-yl]-2-oxa-7-azaspiro[4.4]nonane-7-carboxamide] | < 100 |  |  | < 10 | > 1000 | > 1000
21 | COc1ncc(-c2cnn(C(F)F)c2)c2sc(NC(=O)N3CCC4(CCOCC4)C3)nc12 [Compound 79, 8-Oxa-2-aza-spiro[4.5]decane-2-carboxylic acid [7-(1-difluoromethyl-1H-pyrazol-4-yl)-4-methoxy-thiazolo[4,5-c]pyridin-2-yl]-amide] | < 100 |  |  | < 10 | < 1000 | > 1000

From patent US12344623B2, “Thiazolopyridine derivatives as adenosine receptor antagonists” (Merck Patent GmbH, priority 2019, dated 2025)
